In publication PMC6271590, “Phenoxyacetohydrazide Schiff Bases: β-Glucuronidase Inhibitors” (Molecules, 2014):
Where “and” joins values, the source holds several entries; their conditions need not be identical. Equal entries are not always repeated.

Target: T1, β-Glucuronidase (E.C. 3.2.1.31 from bovine liver) (Bos taurus, UniProt A3KMY8)
T1 construct: β-Glucuronidase (E.C. 3.2.1.31 from bovine liver, G-0251); purchased Sigma Chemical Co. (St. Louis, MO, USA) G-0251; host or cells: bovine liver (tissue-derived preparation)
T1 sequence (A3KMY8 1-652): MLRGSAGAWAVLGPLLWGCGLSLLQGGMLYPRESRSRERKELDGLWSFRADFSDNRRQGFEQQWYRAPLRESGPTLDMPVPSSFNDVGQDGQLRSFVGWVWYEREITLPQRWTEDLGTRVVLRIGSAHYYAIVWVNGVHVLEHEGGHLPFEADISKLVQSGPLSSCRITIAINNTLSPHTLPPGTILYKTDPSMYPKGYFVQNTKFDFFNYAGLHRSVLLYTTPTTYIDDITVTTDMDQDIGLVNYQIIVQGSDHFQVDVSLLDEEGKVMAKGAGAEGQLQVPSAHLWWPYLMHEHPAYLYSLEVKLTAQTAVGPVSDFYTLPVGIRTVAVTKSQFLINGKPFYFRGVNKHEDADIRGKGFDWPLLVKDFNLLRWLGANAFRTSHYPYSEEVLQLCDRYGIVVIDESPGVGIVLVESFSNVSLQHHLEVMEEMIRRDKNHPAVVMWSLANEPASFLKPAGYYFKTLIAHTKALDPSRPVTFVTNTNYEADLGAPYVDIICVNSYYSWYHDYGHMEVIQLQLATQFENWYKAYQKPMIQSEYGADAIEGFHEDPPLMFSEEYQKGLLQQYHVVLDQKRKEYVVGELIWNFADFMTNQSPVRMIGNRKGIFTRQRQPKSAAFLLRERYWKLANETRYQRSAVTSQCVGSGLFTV
Assay: In vitro β-glucuronidase inhibition assay (p-nitrophenyl-β-D-glucuronide, absorbance at 405 nm)
Assay type: biochemical
Conditions: for IC50: bovine liver enzyme, substrate p-nitrophenyl-β-D-glucuronide, 37 °C, 30 min, triplicate, ± SEM, NA = Not active; for β-glucuronidase inhibitory activity in words: qualitative statement
Protocol: Synthetic acyl hydrazides Schiff bases 1–28 were screened for their in vitro potential as β-glucoronidase inhibitors. The in vitro β-glucornidase inhibitory potential was evaluated by using the literature protocol.
β-Glucuronidase (E.C. 3.2.1.31 from bovine liver, G-0251) and p-nitrophenyl-β-D-glucuronide (N-1627) were purchased From Sigma Chemical Co. (St. Louis, MO, USA). Anhydrous Na2CO3 and all other reagents of standard grade were obtained from E. Merck. The anhydrous EtOH and CHCl3 used in the experiments were dried employing the standard methods. All other solvents and reagents like the benzoyl chloride were of standard grade.
β-D-Glucuronidase inhibition was determined by measuring the absorbance of the p-nitrophenol which is produce from the substrate at 405 nm. The total reaction volume was 250 µL. The reaction mixture contains 5 µL of test compound solution, 185 µL of 0.1 M acetate buffer, and 10 µL of enzyme, and it was incubated at 37 °C for 30 min. The plates were read on a multiplate reader at 405 nm after the addition of 50 µL of 0.4 mM p-nitrophenyl-β-D-glucuronide. All assays were performed in triplicate.

SMILES | IC50 | activity relative to the standard D-saccharic acid-1,4-lactone (fold better than standard by IC50) | β-glucuronidase inhibitory activity in words
COc1ccccc1C=CC=NNC(=O)COc1ccc(Cl)cc1C [Compound 1] | 9.2 ± 0.32 µM | fivefold better than the standard | excellent activity
COc1ccc(C=CC=NNC(=O)COc2ccc(Cl)cc2C)cc1 [Compound 2] | – | – | inactive
Cc1cc(Cl)ccc1OCC(=O)NN=Cc1ccccc1[N+](=O)[O-] [Compound 5, 2-(4-Chloro-2-methylphenoxy)-N'-[(2-nitrophenyl)methylidene]acetohydrazide] | 9.47 ± 0.16 µM | – | excellent activity
Cc1cc(Cl)ccc1OCC(=O)NN=Cc1cccc([N+](=O)[O-])c1 [Compound 6, 2-(4-Chloro-2-methylphenoxy)-N'-[(3-nitrophenyl)methylidene]acetohydrazide] | – | – | inactivity
Cc1cc(Cl)ccc1OCC(=O)NN=Cc1ccc(Cl)cc1 [Compound 7, 2-(4-Chloro-2-methylphenoxy)-N'-[-(4-chlorophenyl)methylidene]acetohydrazide] | 14.7 ± 0.19 µM | – | excellent activity
Cc1cc(Cl)ccc1OCC(=O)NN=Cc1ccc(Cl)c(Cl)c1 [Compound 9, 2-(4-Chloro-2-methylphenoxy)-N'-[(3,4-dichlorophenyl)methylidene]acetohydrazide] | – | – | completely inactive
Cc1cc(Cl)ccc1OCC(=O)NN=Cc1c(Cl)cccc1Cl [Compound 10, 2-(4-Chloro-2-methylphenoxy)-N'-[(2,6-dichlorophenyl)methylidene]acetohydrazide] | – | – | completely inactive
Cc1cc(Cl)ccc1OCC(=O)NN=Cc1ccccc1F [Compound 11, 2-(4-Chloro-2-methylphenoxy)-N'-[-(2-fluorophenyl)methylidene]acetohydrazide] | 19 µM and 19.6 µM | – | excellent activity
Cc1cc(Cl)ccc1OCC(=O)NN=Cc1ccsc1 [Compound 12, 2-(4-Chloro-2-methylphenoxy)-N'-[3-thienylmethylidene]acetohydrazide] | 30.7 ± 1.49 µM | – | excellent activity
Cc1cc(Cl)ccc1OCC(=O)NN=Cc1ccco1 [Compound 13, 2-(4-Chloro-2-methylphenoxy)-N'-[-2-furylmethylidene]acetohydrazide] | – | – | completely inactive
Cc1ccc(C=NNC(=O)COc2ccc(Cl)cc2C)o1 [Compound 14, 2-(4-Chloro-2-methylphenoxy)-N'-[-(5-methyl-2-furyl)methylidene]acetohydrazide] | – | – | completely inactive
Cc1cc(Cl)ccc1OCC(=O)NN=Cc1cccc(O)c1O [Compound 15, 2-(4-Chloro-2-methylphenoxy)-N'-[-(2,3-dihydroxyphenyl)methylidene]acetohydrazide] | 12 ± 0.16 µM | – | excellent activity
Cc1cc(Cl)ccc1OCC(=O)NN=Cc1ccc(O)c(O)c1 [Compound 16, 2-(4-Chloro-2-methylphenoxy)-N'-[-(3,4-dihydroxyphenyl)methylidene]acetohydrazide] | – | – | completely inactive
CC(=NNC(=O)COc1ccc(Cl)cc1C)c1ccc(O)cc1 [Compound 17, 2-(4-Chloro-2-methylphenoxy)-N'-[1-(4-hydroxyphenyl)ethylidene]acetohydrazide] | – | – | completely inactive
Cc1cc(Cl)ccc1OCC(=O)NN=Cc1cccc(O)c1 [Compound 18, 2-(4-Chloro-2-methylphenoxy)-N'-[(3-hydroxyphenyl)methylidene]acetohydrazide] | – | – | completely inactive
CC(=NNC(=O)COc1ccc(Cl)cc1C)c1c(O)cc(O)cc1O [Compound 19, 2-(4-Chloro-2-methylphenoxy)-N'-[1-(2,4,6-trihydroxyphenyl)ethylidene]acetohydrazide] | – | – | completely inactive
Cc1cc(Cl)ccc1OCC(=O)NN=Cc1ccc(O)cc1 [Compound 20, 2-(4-Chloro-2-methylphenoxy)-N'-[(4-hydroxyphenyl)methylidene]acetohydrazide] | – | – | completely inactive
Cc1cc(Cl)ccc1OCC(=O)NN=Cc1cccc2ccccc12 [Compound 21, 2-(4-Chloro-2-methylphenoxy)-N'-[-1-naphthylmethylidene]acetohydrazide] | 13.7 ± 0.4 µM | – | excellent activity
Cc1cc(Cl)ccc1OCC(=O)NN=Cc1ccc2ccccc2c1 [Compound 22, 2-(4-Chloro-2-methylphenoxy)-N'-[-2-naphthylmethylidene]acetohydrazide] | 22 ± 0.14 µM | – | excellent activity
